Measurements taken from patent US20260265771A1, “METHODS OF INCREASING THE REGENERATION EFFICIENCY IN PLANTS” (Institute of Genetics and Developmental Biology Chinese …, priority 2022, published 2026).
Several values for one entry are separate records, joined by “and”; a condition that tells them apart may be missing. Equal values may be shown once. Entries after “also recorded” stand apart in the source; their conditions may differ.

Experiments:
soybean explants = experiment: Shoot regeneration of soybean explants; type: cell-based, Glycine max
Procedure: The relative regeneration capacity was represented by the relative frequency of explants with the regenerated shoots. Data are mean±SD of three independent experiments. Bars show mean±SD. ***P<0.001, **P<0.01, *P<0.05 (Student's t-test).
Soybean explants were cultured on medium containing indicated concentrations of REF1. Shoot regeneration was scored 21 days after incubation.

[1] = system: Williams 82 soybean cultivar; experiment: Transformation efficiency of soybean (reporter gene A); type: cell-based
Procedure: By “transformation efficiency” is meant the capacity of an organism to take up and incorporate exogenous DNA such as plasmids during transformation. Transformation efficiency is calculated by dividing the number of transformants by the total number of organisms subjected to the transformation process and multiplying this by 100 to obtain a percentage.
The soybean gene A was transformed into the Williams 82 soybean cultivar and treated with 100 nM GmREF1 or a control. Gene A is a transcription factor gene which is used as a reporter for transformation efficiency. […]

recalcitrant soybean = experiment: Regeneration frequency / transformation efficiency of recalcitrant soybean; type: cell-based; conditions: 100 nM GmREF1 vs control in absence of GmREF1
Procedure: (a) photos of control recalcitrant soybean and PRR+RER overexpressing (OE) recalcitrant soybean grown in the presence of 50 nM gmREF1, 100 nM GmREF1 or a vehicle only control (mock). (b) relative regeneration frequency of control recalcitrant soybean and PRR+RER overexpressing (OE) recalcitrant soybean grown in the presence of 50 nM GmREF1, 100 nM GmREF1 or a absence of REF1 (mock).

pepper roots = experiment: Root hair formation in pepper; type: in vivo, Capsicum annuum; conditions: 0, 10 and 100 nM CaREF1
Description: The pepper SIPEP (REF1) orthologue (CaREF1) was investigated to establish whether CaREF1 can increase the regenerative capacity of pepper (Capsicum annuum).

[2] = system: pepper cotyledon explants; experiment: Callus formation of pepper cotyledon explants on CIM; type: cell-based, Capsicum annuum; conditions: CIM, 0, 1 and 10 nM CaREF1
Procedure: Cotyledon explants were cultured on callus-inducing medium (CIM) containing indicated concentrations of CaREF1. (a) photos of cotelydon explants grown with 0 nM, 1 nM and 10 nM CaREF1. (b) relative callus area of cotelydon explants grown with 0 nM, 1 nM and 10 nM CaREF1. Box plots represent the distribution of projected callus area. The projected area of callus was quantified by Image J. Individual values (black dots) are shown and error bars represent SD from three independent experiments. **P<0.01, *P<0.05 (Student's t-test).

cucumber leaf explants = experiment: Shoot regeneration of cucumber leaf explants; type: cell-based; conditions: 10 nM CsREF1 vs untreated control explants, 21 d
Procedure: FIG. 46—Leaf explants were cultured on medium containing indicated concentrations of CsREF1. Shoot regeneration was scored at 21 d after incubation. The shoot regenerative capacity was represented by the number of regenerated shoots per explant. Data are mean±SD of three independent experiments. Bars show mean±SD. ***P<0.001, **P<0.01, *P<0.05 (Student's t-test).
Leaf explants were cultured on a medium containing 10 nM CsREF1.

[3] = 100 nM GmREF1, three experiments

Sequence: GSVVVLQTKRKHDGGKGRDPQTN (Glycine max) [GmREF1]
- relative regeneration frequency, increase (soybean explants; 10 nM GmREF1 vs absence): ~ 2.1 fold
- relative regeneration frequency, increase (soybean explants; 20 nM GmREF1 vs absence): ~ 2.8 fold
- relative regeneration frequency, increase (soybean explants; 50 nM GmREF1 vs absence): ~ 3.8 fold
- shoot regeneration / regenerative capacity (soybean explants; presence vs absence of GmREF1): increases the regenerative capacity; also recorded: promotes shoot regeneration
- Regenerated shoots carrying the reporter gene [1, 3]: 177 and 156 and 200
- Transformation efficiency (%) [1, 3]: 64.1% and 73.9% and 72.9%
- transformation efficiency ([1]; 100 nM GmREF1 vs control): improves transformation efficiency; also recorded: greater
- regeneration frequency, increase (recalcitrant soybean): ~ 12 fold

Sequence: TGRRRGRPPSRPGVGRGPPPENN (listed as Capsicum annuum) [CaREF1]
- root hair formation (pepper roots): promotes root hair formation
- callus formation [2]: increased; also recorded: promotes callus formation

Sequence: YKLEGELQKRFEDLLKTTTDNDIPRGGNY (listed as Cucumis sativus) [CsREF1]
- shoot regenerative capacity (cucumber leaf explants): significantly increased
